Test results taken from patent publication US20020006915A1, “Use of COX-2 inhibitors to treat sepsis, complications thereof, and EP receptor modulation” (priority 2000, published 2002).

System: LPS stimulated splenic macrophages
Assay: Mediator production (PGE2, IL-6, TNF-α, NO) by stimulated splenic macrophages 7 days after injury, 3 in vivo doses of NS-398 within 24 h
Set-up: species or system BALB/c mice
Description: Vehicle mice were injected with a 4% DMSO solution.
Spleens were collected aseptically and placed in separate petri dishes containing cold (4° C.) Hanks Balanced Salt Solution without calcium and magnesium (Gibco BRL, Life Technologies Inc, Grand Island, N.Y.). Splenocytes were isolated by gentle mechanical disruption of the spleen with filtration through a nylon mesh (Spectrum, Laguna Hills, Calif.). The suspension was centrifuged for 7 minutes, at 500 g and 4° C. After resuspension, erythrocytes were lysed with an ammonium chloride solution for 4 minutes and the lysate was centrifuged as previously described. The remaining pellet was resuspended in complete RPMI-1640 (Gibco BRL, Life Technologies Inc), containing 1% antibiotic/antimycotic solution and 10% heat-inactivated fetal bovine serum (Gibco BRL, Life Technologies Inc), counted and diluted to a final cell concentration of 5×10^6 cells/ml and plated. After allowing macrophages to adhere for 2 hours, the remaining cells were suctioned off and macrophages were incubated with 10 ng/ml LPS 055:B5 (Sigma, St. Louis, Mo.) for PGE2, IL-6 and TNFα determination, or (10 ng/ml LPS+100 U/ml recombinant mouse IFN-γ (Pharmingen, San Diego, Calif.) for NO2^− determination. Cells were incubated at 37° C. in a 5% CO2 atmosphere, and supernatants harvested at 24 hours and frozen at −70° C. for determination of prostaglandin, cytokine and NO production.
NO2^− was measured indirectly by determination of NO2^− concentration using the Greiss reagent system (Promega, Madison, Wis.). The BCA protein assay (Pierce, Rockford, Ill.) was used to quantify protein and all measurements were normalized to protein content per well.
Balb/c mice (n=8/group) were given 3 intraperitoneal injections of 10 mg/kg NS398; immediately following injury, at 12 and 24 hours after sham injury or trauma (femur fracture and 40% blood volume hemorrhage). Sham+placebo (C); sham+NS398 (CN); trauma+placebo (T); or trauma+NS398 (TN) groups were studied. On day 7 after injury, mice were sacrificed and splenic macrophages evaluated for cytokine production and expression of COX-2 mRNA. In a separate study, mice (n=10-12/group) were treated in an identical fashion. After 7 days, cecal ligation and puncture was performed and animals followed for survival.

[1] = T + NS, 3 i.p. injections of 10 mg/kg, splenic macrophages day 7

In the case of `CS(=O)(=O)Nc1ccc([N+](=O)[O-])cc1OC1CCCCC1` [NS-398, N-(2-cyclohexyloxy-4-nitrophenyl)methanesulfonamide], the IL-6 [1] is reported as 5.4 ± 0.9 pg/μg protein, the NO [1] is reported as 8 ± 4 nmol/μgprot and the TNF-α [1] is reported as 2.0 ± 0.5. For the same compound, the PGE2 (T + NS, 3 i.p. injections of 10 mg/kg, splenic macrophages day 7, n=8) was 71 ± 14, the PGE2 production from LPS stimulated splenic macrophages (control mice treated with NS-398 (CN), 7 days) was 87 ± 10 pg/µg protein and the “IL-6 level, splenic macrophages” value (injured mice + NS-398, 7 days) was 5.4 ± 0.3 pg/µg. For the same compound, the “nitrite levels, LPS+IFN-γ stimulated splenic macrophages” value (injured mice + NS-398, 7 days) was 0.007 ± 0.004 nmol/µg, the “TNF-α production, splenic macrophages” value (trauma + NS-398 (TN), 7 days following trauma) was 2.0 ± 0.2 pg/µL and the “PGE2 production from LPS stimulated splenic macrophages” value (trauma+NS-398 mice, 7 days following injury, treatment for 24 hours post-injury, ±SEM) was 71 ± 5 pg/µg.
